Measurements from PubChem BioAssay (NCI).
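Where inhibition never reached the appropriate level, the endpoint shown equals the highest concentration tested. Otherwise, values were interpolated linearly from a five-concentration, 48-hour dose response in 96-well plates. TGI: concentration producing complete growth inhibition.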

Assays:
Assay in all cases: growth of human tumour cells (NCI), 48 h
786-0 renal = test system: 786-0 renal
A498 renal = test system: A498 renal
A549 NSCLC = test system: A549 NSCLC
ACHN renal = test system: ACHN renal
BT-549 breast = test system: BT-549 breast
CAKI-1 renal = test system: CAKI-1 renal
CCRF-CEM leukemia = test system: CCRF-CEM leukemia
COLO 205 colon = test system: COLO 205 colon
DU-145 prostate = test system: DU-145 prostate
EKVX NSCLC = test system: EKVX NSCLC
HCC-2998 colon = test system: HCC-2998 colon
HCT-116 colon = test system: HCT-116 colon
HCT-15 colon = test system: HCT-15 colon
HL-60(TB) leukemia = test system: HL-60(TB) leukemia
HOP-62 NSCLC = test system: HOP-62 NSCLC
HOP-92 NSCLC = test system: HOP-92 NSCLC
HS 578T breast = test system: HS 578T breast
HT29 colon = test system: HT29 colon
IGROV1 ovarian = test system: IGROV1 ovarian
K-562 leukemia = test system: K-562 leukemia
KM12 colon = test system: KM12 colon
LOX IMVI melanoma = test system: LOX IMVI melanoma
M14 melanoma = test system: M14 melanoma
MALME-3M melanoma = test system: MALME-3M melanoma
MCF7 breast = test system: MCF7 breast
MDA-MB-231 breast = test system: MDA-MB-231 breast
MDA-MB-435 = test system: MDA-MB-435
MDA-N = test system: MDA-N
NCI-H226 lung = test system: NCI-H226 lung
NCI-H23 lung = test system: NCI-H23 lung
NCI-H460 lung = test system: NCI-H460 lung
NCI-H522 lung = test system: NCI-H522 lung
NCI/ADR-RES ovarian = test system: NCI/ADR-RES ovarian
OVCAR-3 ovarian = test system: OVCAR-3 ovarian
OVCAR-4 ovarian = test system: OVCAR-4 ovarian
OVCAR-5 ovarian = test system: OVCAR-5 ovarian
OVCAR-8 ovarian = test system: OVCAR-8 ovarian
PC-3 prostate = test system: PC-3 prostate
RPMI-8226 leukemia = test system: RPMI-8226 leukemia
RXF 393 renal = test system: RXF 393 renal
SF-268 CNS = test system: SF-268 CNS
SF-295 CNS = test system: SF-295 CNS
SK-MEL-2 melanoma = test system: SK-MEL-2 melanoma
SK-MEL-28 melanoma = test system: SK-MEL-28 melanoma
SK-MEL-5 melanoma = test system: SK-MEL-5 melanoma
SK-OV-3 ovarian = test system: SK-OV-3 ovarian
SN12C renal = test system: SN12C renal
SNB-19 CNS = test system: SNB-19 CNS
SNB-75 CNS = test system: SNB-75 CNS
SR leukemia = test system: SR leukemia
SW-620 colon = test system: SW-620 colon
T-47D breast = test system: T-47D breast
TK-10 renal = test system: TK-10 renal
U251 CNS = test system: U251 CNS
UACC-257 melanoma = test system: UACC-257 melanoma
UACC-62 melanoma = test system: UACC-62 melanoma
UO-31 renal = test system: UO-31 renal

Nc1nc(SCc2ccccc2Cl)cc(C(=O)O)n1
TGI (786-0 renal): > 100 µM
TGI (A498 renal): > 100 µM
TGI (A549 NSCLC): > 100 µM
TGI (ACHN renal): > 100 µM
TGI (BT-549 breast): > 100 µM
TGI (CAKI-1 renal): > 100 µM
TGI (CCRF-CEM leukemia): > 100 µM
TGI (COLO 205 colon): > 100 µM
TGI (DU-145 prostate): > 100 µM
TGI (EKVX NSCLC): > 100 µM
TGI (HCC-2998 colon): > 100 µM
TGI (HCT-116 colon): > 100 µM
TGI (HCT-15 colon): > 100 µM
TGI (HL-60(TB) leukemia): > 100 µM
TGI (HOP-62 NSCLC): > 100 µM
TGI (HOP-92 NSCLC): > 100 µM
TGI (HS 578T breast): > 100 µM
TGI (HT29 colon): > 100 µM
TGI (IGROV1 ovarian): > 100 µM
TGI (K-562 leukemia): > 100 µM
TGI (KM12 colon): > 100 µM
TGI (LOX IMVI melanoma): > 100 µM
TGI (M14 melanoma): > 100 µM
TGI (MALME-3M melanoma): > 100 µM
TGI (MCF7 breast): > 100 µM
TGI (MDA-MB-231 breast): > 100 µM
TGI (MDA-MB-435): > 100 µM
TGI (MDA-N): > 100 µM
TGI (NCI-H226 lung): > 100 µM
TGI (NCI-H23 lung): > 100 µM
TGI (NCI-H460 lung): > 100 µM
TGI (NCI-H522 lung): > 100 µM
TGI (NCI/ADR-RES ovarian): > 100 µM
TGI (OVCAR-3 ovarian): 89.2 µM
TGI (OVCAR-4 ovarian): > 100 µM
TGI (OVCAR-5 ovarian): > 100 µM
TGI (OVCAR-8 ovarian): > 100 µM
TGI (PC-3 prostate): > 100 µM
TGI (RPMI-8226 leukemia): > 100 µM
TGI (RXF 393 renal): > 100 µM
TGI (SF-268 CNS): > 100 µM
TGI (SF-295 CNS): > 100 µM
TGI (SK-MEL-2 melanoma): > 100 µM
TGI (SK-MEL-28 melanoma): > 100 µM
TGI (SK-MEL-5 melanoma): > 100 µM
TGI (SK-OV-3 ovarian): > 100 µM
TGI (SN12C renal): > 100 µM
TGI (SNB-19 CNS): > 100 µM
TGI (SNB-75 CNS): > 100 µM
TGI (SR leukemia): > 100 µM
TGI (SW-620 colon): > 100 µM
TGI (T-47D breast): > 100 µM
TGI (TK-10 renal): > 100 µM
TGI (U251 CNS): > 100 µM
TGI (UACC-257 melanoma): > 100 µM
TGI (UACC-62 melanoma): > 100 µM
TGI (UO-31 renal): > 100 µM
